# According to patent publication US5413991A (Ajinomoto Co., Inc., priority 1991, dated 1995):
# Tests used:
# [1] = target: chitinase from Trichoderma sp. (Chitinase T-1); assay: Assay for chitinase inhibitory activity, chitinase from Trichoderma sp.; assay type: biochemical; settings: McIlvaine buffer pH 5.2, substrate 4MBTC
# Method: The chitinase from Trichoderma sp. was provided for use in the assay described in procedure (ii) below by diluting commercially available Chitinase T-1 (manufactured by Asahi Industry Co., Ltd.) with MclIvanine buffer (obtained by adding 0.2M aqueous disodium hydrogen phosphate to 0.1M aqueous citric acid and adjusting the pH to 5.2) to a concentration of 50 μg/ml.
# (§1) In a 20 ml vial bottle, 50 μl of the chitinase solution from Candida albicans prepared as described above,s 50 μl of 100 μg/ml aqueous 4-methylumbelliferyl β-D-N,N',N"-triacetyl-chitotrioside (hereinafterabbreviated as 4MBTC, SIGMA Co.), 75 μl of 50 mM bis-Tris buffer (pH 6.5) and 25 μl of 0.1N acetic acid were added and mixed. The reaction was carried out at 37° C. for 30 minutes. As a blank, the reaction was carried out in an identical manner, substituting 50 mM bis-Tris buffer (pH 6.5) for the enzyme solution. After the reaction, sufficient 0.5M glycine-sodium hydroxide buffer (pH 10.4) was added to make the total volume 5 ml. Then, the fluorescent intensity was determined with a fluorophotometer (manufactured by Hitachi Ltd., MPF-4). The excited wavelength was 350 nm, and the fluorescent wavelength was 400 nm. Chitinase activity was determined using the difference in the fluorescent intensity between the read-out data from the sample containing the enzyme and the blank read-out data.
# (§2) In determining the inhibitory activity of AJI9463A, AJI9463B, AJI9463C, and the partially hydrolyzed disaccharides thereof, each compound was dissolved in 0.1N acetic acid, and 25 μl of the compound solution was substituted for the 25 μl of 0.1N acetic acid in the reaction system described above. Further, in determining the inhibitory activity against the chitinases of baker's yeast and Trichoderma sp., the assay was performed by changing the buffer in the reaction system described above from 50 mM bis-Tris buffer (pH 6.5) to 0.1M citrate buffer (pH 3.0) and MclLvanine buffer (pH 5.2), respectively.
# [2] = target: T1, chitinase from baker's yeast (S cerevisiae) (Saccharomyces cerevisiae, UniProt P29029); assay: Assay for chitinase inhibitory activity, chitinase from baker's yeast; assay type: biochemical; settings: 0.1M citrate buffer pH 3.0, substrate 4MBTC
# T1 construct: was shaken at 30° C. for 2 hours at 120 spm to extract the enzyme; host or cells: commercial baker's yeast, digitonin extract
# T1 sequence (P29029 21-562): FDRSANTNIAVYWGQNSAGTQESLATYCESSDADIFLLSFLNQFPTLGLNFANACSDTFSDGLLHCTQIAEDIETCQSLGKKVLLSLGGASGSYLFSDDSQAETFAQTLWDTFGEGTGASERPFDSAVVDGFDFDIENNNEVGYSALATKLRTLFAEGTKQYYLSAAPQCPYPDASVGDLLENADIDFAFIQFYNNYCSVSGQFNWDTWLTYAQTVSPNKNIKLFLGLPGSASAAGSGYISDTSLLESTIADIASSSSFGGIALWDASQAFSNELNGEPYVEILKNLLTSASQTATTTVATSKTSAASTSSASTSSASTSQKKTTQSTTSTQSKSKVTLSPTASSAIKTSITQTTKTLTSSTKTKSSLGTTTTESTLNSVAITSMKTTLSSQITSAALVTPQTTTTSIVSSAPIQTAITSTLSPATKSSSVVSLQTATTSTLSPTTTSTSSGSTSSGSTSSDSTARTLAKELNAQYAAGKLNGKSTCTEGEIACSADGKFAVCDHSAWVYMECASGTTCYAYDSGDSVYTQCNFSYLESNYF
# Method: The chitinase from baker's yeast (S cerevisiae) was prepared by the following method. Firstly, 400 g of baker's yeast (manufactured by Kanegafuchi Chemical Industry Co., Ltd.) was suspended in buffer for enzyme extraction (0.1% digitonin: manufactured by Wako Pure Chemical Industry Co., Ltd.), 0.1% β-mercaptoethanol and 2 liters of 25 mM MES (manufactured by Nakarai Chemical Co., Ltd.), and was shaken at 30° C. for 2 hours at 120 spm to extract the enzyme. The extract was centrifuged at 12,000 g for 10 minutes and the supernatant was recovered. The supernatant was concentrated to about one-fifth of the volume by ultrafiltration (UP-20). After 800 ml of sodium citrate buffer (obtained by adding 0.15M aqueous sodium citrate to 0.15M aqueous citric acid, and adjusting the pH to 3.0) was added to the concentrate, the precipitates were removed by centrifugation (0° C., 12,000 g, 10 minutes). The supernatant was again concentrated by ultrafiltration (UP-20) to about 80 ml. The resulting concentrate was used as the chitinase from baker's yeast in the assay described in procedure (ii) below.
# as §1, §2
# [3] = tested on: chitinase from Candida albicans; assay: Assay for chitinase inhibitory activity, chitinase from Candida albicans (4MBTC fluorescence); assay type: biochemical, Candida albicans ATCC 10231; settings: for Chitinase Inhibitory Activity IC50, C. albicans: bis-Tris buffer pH 6.5, 37° C., 30 minutes, substrate 4MBTC; for Inhibitory activity against chitinase derived from Candida albicans, in words: comparison in words
# Method: The chitinase from Candida albicans (C. albicans) was prepared by the following method. Firstly, a Sabouraud medium (pH 5.6) composed of 4 g of glucose, 1 g of polypeptone and 100 ml of water was prepared and placed in an Erlenmeyer flask of 500 ml volume. After sterilization at 120° C. for 20 minutes, one platinum loop of slant culture cells of C. albicans ATCC 10231 was inoculated into the medium, and then shake cultured at 37° C. for 2 days to obtain a primary seed mother liquor.
# In a second procedure, 1 liter of Sabouraud medium having the same composition as above was prepared. Separately, 100 ml of the medium was added to each of ten 500 ml Erlenmeyer flasks, then the flasks and their contents were sterilized at 120° C. for 20 minutes. Thereafter, 2 ml of the primary seed mother liquor described above was added to each flask. The flask was shaken at 37° C. for 2 days to obtain a secondary seed mother liquor.
# In a third procedure, 50 liters of Sabouraud medium having the same composition as described above was prepared and added to a culture tank of 100 liter volume. The tank and its contents were sterilized at 120° C. for 30 minutes. In the tank, 1 liter of the secondary seed mother liquor described above was added. Shake culturing was then conducted at 37° C. for 15 hours. At this stage, the stirring velocity was 140 rpm and the aerial rate was 10 l/min. The resulting culture broth was centrifuged by a sharpless centrifuging machine to recover the cells. The wet weight of the thus obtained cells was 250 g.
# The cells were suspended in 800 ml of a buffer for cell homogenization (50 mM bis-Tris, 0.25M saccharose, 1 mM disodium ethylenediaminetetraacetate, pH 6.5). The suspension was twice passed through a Dyno-mill disintegrator (beads: MK-2GX, 0.25-0.5 mm) to disrupt the cells, and the supernatant was recovered. The supernatant was centrifuged at 9000 g for 30 minutes, then further super-centrifuged at 152,000 g for an hour. The supernatant thereof was recovered, and was concentrated to about one-fifth of the volume by ultrafiltration (Toyo Ultrafilter UP-20), having an excluding limiting molecular weight of 20,000. The concentrate was used as the crude chitinase solution from Candida albicans in the assay described in procedure (ii) below.
# as §1, §2
# [4] = tested on: human leukemia cells K562; assay: Cytotoxicity, human leukemia cells K562; assay type: cell-based; settings: 1 mg/ml, 37° C., 4 days, microscopic observation
# Method: (§3) Six separate samples of human leukemia cells K562, inoculated in RPMI 1640 medium supplemented with 10% calf fetal serum (1×10^5 counts/ml) were prepared, and AJI9463A, AJI9463B, AJI9463C and each of the partially hydrolyzed disaccharides thereof were respectively added thereto, resulting in a concentration of 1 mg/ml. Stationary culture was conducted at 37° C. for 4 days. The human leukemia cell K562 culture was observed microscopically.
# [5] = tested on: Candida albicans (ATCC 10231); assay: Effects on growth of Candida albicans; assay type: cell-based; settings: 50 μg/ml, Sabouraud dextrose medium, 37° C., 6 and 9 hours after inoculation, microscopic observation
# Method: Samples of Candida albicans (ATCC 10231) were precultured in Sabouraud dextrose medium. Each of seven large test tubes containing 5 ml of Sabouraud dextrose medium were charged, respectively, with 50 μg/ml of AJI9463A, AJI9463B, AJI9463C, and the partially hydrolyzed disaccharides thereof and medium containing no active inhibitory component. The preculture was then inoculated into the media in the test tubes. The test tubes were capped with a cotton stopper, and incubated at 37° C. at 120 spm. The change in the subsequent culture with respect to time was observed. Observations were made microscopically, sampling the medium at the time when the culture started, and 6 and 9 hours thereafter.
# [6] = tested on: mouse ascites breast cancer cells FM3A; assay: Cytotoxicity, mouse ascites breast cancer cells FM3A; assay type: cell-based; settings: 1 mg/ml, 37° C., 4 days, microscopic observation
# Method: as §3, with “mouse ascites breast cancer” for “human leukemia”, “FM3A,” for “K562,”, “Dulbeccol's modified MEM” for “RPMI 1640”, “cultured mouse ascites breast cancer cells FM3A were” for “human leukemia cell K562 culture was”
# fungi-derived chitinase = settings: background statement; cited from earlier work
# [7] = tested on: endo-type chitinase of insects; settings: background statement; cited from earlier work
# [8] = tested on: silkworm-derived chitinase; settings: background statement; cited from earlier work
smiles,measurement,setting,value
CC(=O)N[C@H]1[C@H](OC2C(O)C3N=C(N(C)C)OC3C2CO)O[C@H](CO)[C@@H](O)[C@@H]1O (some centres unmarked),"Chitinase Inhibitory Activity IC50, Trichoderma sp.",[1],> 50.0 µg/mL
same,IC50,[2],> 477 µM
same,"Chitinase Inhibitory Activity IC50, C. albicans",[3],1.3 µg/mL
COC[C@H]1O[C@@H](O[C@H]2[C@H](O)[C@@H](NC(C)=O)[C@H](OC3C(O)C4N=C(N(C)C)OC4C3CO)O[C@@H]2CO)[C@H](NC(C)=O)[C@H](O)[C@@H]1O (some centres unmarked) [AJI9463C],"Chitinase Inhibitory Activity IC50, Trichoderma sp.",[1],0.8 µg/mL
same,IC50,[2],49.2 µM
same,Growth inhibition of human leukemia cells K562 (cytotoxicity),[4],No growth inhibition was noted at all
same,Fungal growth of Candida albicans,[5],somewhat inhibited
same,Growth inhibition of mouse ascites breast cancer cells FM3A (cytotoxicity),[6],No growth inhibition was noted at all
same,"Chitinase Inhibitory Activity IC50, C. albicans",[3],3.4 µg/mL
same,"Inhibitory activity against chitinase derived from Candida albicans, in words",[3],superior to that of allosamidin and methylallosamidin
"COC[C@H]1O[C@@H](O[C@H]2[C@@H](O)[C@@H](NC(C)=O)[C@H](OC3C(O)C4N=C(N(C)C)OC4C3CO)O[C@@H]2CO)[C@H](NC(C)=O)[C@H](O)[C@@H]1O (some centres unmarked) [Methylallosamidin, methylallosamidin, reference compound]",Inhibitory activity against fungi-derived chitinase,fungi-derived chitinase,weak inhibitory activity
same,"Chitinase Inhibitory Activity IC50, Trichoderma sp.",[1],1.2 µg/mL
same,IC50,[2],58.4 µM
same,Inhibition of endo-type chitinase of insects,[7],strongly inhibit
same,Inhibition of silkworm-derived chitinase,[8],inhibitors
same,"Chitinase Inhibitory Activity IC50, C. albicans",[3],8.8 µg/mL
CNC1=NC2C(O)C(O[C@@H]3O[C@H](CO)[C@@H](O)[C@@H](O)[C@H]3NC(C)=O)C(CO)C2O1 (some centres unmarked),"Chitinase Inhibitory Activity IC50, Trichoderma sp.",[1],> 50.0 µg/mL
same,IC50,[2],> 493 µM
same,"Chitinase Inhibitory Activity IC50, C. albicans",[3],0.9 µg/mL
CNC1=NC2C(O)C(O[C@@H]3O[C@H](CO)[C@@H](O[C@@H]4O[C@H](COC)[C@@H](O)[C@@H](O)[C@H]4NC(C)=O)[C@@H](O)[C@H]3NC(C)=O)C(CO)C2O1 (some centres unmarked) [AJI9463A],"Chitinase Inhibitory Activity IC50, Trichoderma sp.",[1],1.3 µg/mL
same,IC50,[2],0.642 µM
same,Growth inhibition of human leukemia cells K562 (cytotoxicity),[4],No growth inhibition was noted at all
same,Fungal growth of Candida albicans,[5],somewhat inhibited
same,Growth inhibition of mouse ascites breast cancer cells FM3A (cytotoxicity),[6],No growth inhibition was noted at all
same,"Chitinase Inhibitory Activity IC50, C. albicans",[3],0.6 µg/mL
same,"Inhibitory activity against chitinase derived from Candida albicans, in words",[3],most potent inhibitory activity of any known compound
CNC1=NC2C(O)C(O[C@@H]3O[C@H](CO)[C@@H](O[C@@H]4O[C@H](COC)[C@@H](O)[C@@H](O)[C@H]4NC(C)=O)[C@H](O)[C@H]3NC(C)=O)C(CO)C2O1 (some centres unmarked) [AJI9463B],"Chitinase Inhibitory Activity IC50, Trichoderma sp.",[1],1.6 µg/mL
same,IC50,[2],0.803 µM
same,Growth inhibition of human leukemia cells K562 (cytotoxicity),[4],No growth inhibition was noted at all
same,Fungal growth of Candida albicans,[5],somewhat inhibited
same,Growth inhibition of mouse ascites breast cancer cells FM3A (cytotoxicity),[6],No growth inhibition was noted at all
same,"Chitinase Inhibitory Activity IC50, C. albicans",[3],0.8 µg/mL
same,"Inhibitory activity against chitinase derived from Candida albicans, in words",[3],superior to that of allosamidin and methylallosamidin
"CC(=O)N[C@H]1[C@H](O[C@H]2[C@@H](O)[C@@H](NC(C)=O)[C@H](O[C@H]3[C@H](O)[C@H]4N=C(N(C)C)O[C@H]4[C@@H]3CO)O[C@@H]2CO)O[C@H](CO)[C@@H](O)[C@H]1O [Allosamidin, allosamidin]",Inhibitory activity against fungi-derived chitinase,fungi-derived chitinase,weak inhibitory activity
same,"Chitinase Inhibitory Activity IC50, Trichoderma sp.",[1],0.8 µg/mL
same,Inhibition of endo-type chitinase of insects,[7],strongly inhibit
same,Inhibition of silkworm-derived chitinase,[8],inhibitors
same,"Chitinase Inhibitory Activity IC50, C. albicans",[3],6.2 µg/mL
CNC1=NC2C(O)C(O[C@@H]3O[C@H](CO)[C@@H](O)[C@H](O)[C@H]3NC(C)=O)C(CO)C2O1 (some centres unmarked),"Chitinase Inhibitory Activity IC50, Trichoderma sp.",[1],> 50.0 µg/mL
same,IC50,[2],> 493 µM
same,"Chitinase Inhibitory Activity IC50, C. albicans",[3],1.0 µg/mL
